Key:
Assay type in all cases: in vivo
[1] = tested on: common chickweed; assay: Test Example 4: herbicidal effect in foliage treatment; settings: dose 3.2 g/a, three weeks after the application
Summary of the method: (§1)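 14-day greenhouse-grown plants (25–30° C) sprayed on foliage with diluted EC; dose as g/a; effect graded after 3 weeks.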

[2] = tested on: common lambsquater; assay: as above; settings: dose 3.2 g/a, three weeks after the application
Summary of the method: as §1

[3] = tested on: barnyardgrass; assay: as above; settings: dose 3.2 g/a, three weeks after the application
Summary of the method: as §1

[4] = tested on: common ragweed; assay: as above; settings: dose 3.2 g/a, three weeks after the application
Summary of the method: as §1

[5] = tested on: water foxtail; assay: as above; settings: dose 3.2 g/a, three weeks after the application
Summary of the method: as §1

[6] = tested on: large crabgrass; assay: as above; settings: dose 3.2 g/a, three weeks after the application
Summary of the method: as §1

[7] = tested on: velvetleaf; assay: as above; settings: dose 3.2 g/a, three weeks after the application
Summary of the method: as §1

[8] = tested on: beadstraw; assay: as above; settings: dose 3.2 g/a, three weeks after the application
Summary of the method: as §1

[9] = tested on: giant foxtail; assay: as above; settings: dose 3.2 g/a, three weeks after the application
Summary of the method: as §1

[10] = tested on: redroot pigweed; assay: as above; settings: dose 3.2 g/a, three weeks after the application
Summary of the method: as §1

[11] = tested on: posumbu knotweed; assay: as above; settings: dose 3.2 g/a, three weeks after the application
Summary of the method: as §1

[12] = tested on: wild oat; assay: as above; settings: dose 3.2 g/a, three weeks after the application
Summary of the method: as §1

[13] = tested on: Italian ryegrass; assay: as above; settings: dose 3.2 g/a, three weeks after the application
Summary of the method: as §1

[14] = tested on: barnyardgrass; assay: Test Example 1: herbicidal effects in preemergence treatment under submerged conditions; settings: dose 2.52 g/a
Summary of the method: (§2)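 Scoring 0 (<5% mortality) to 5 (≥90%) was done three weeks after preemergence application to the water surface of submerged (4 cm) alluvial soil, doses given as g per are. Weeds were seeded and 2.5-leaf rice transplanted on the treatment day; greenhouse at 25–30 °C.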

[15] = tested on: bulrush; assay: as above; settings: dose 2.52 g/a
Summary of the method: as §2

[16] = tested on: ducksalad; assay: as above; settings: dose 2.52 g/a
Summary of the method: as §2

[17] = tested on: common chickweed; assay: Test Example 3: herbicidal effects in soil treatment; settings: dose 3.2 g/a
Summary of the method: (§3)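 Seeds were sown in sterilized diluvial soil and covered with about 1.5 cm of soil. Compounds, formulated as emulsifiable concentrates and diluted with water, were sprayed evenly over the soil surface at set doses in g/a. Herbicidal effect was scored on a rating scale three weeks later.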

[18] = tested on: common lambsquater; assay: as above; settings: dose 3.2 g/a
Summary of the method: as §3

[19] = tested on: barnyardgrass; assay: as above; settings: dose 3.2 g/a
Summary of the method: as §3

[20] = tested on: common ragweed; assay: as above; settings: dose 3.2 g/a
Summary of the method: as §3

[21] = tested on: water foxtail; assay: as above; settings: dose 3.2 g/a
Summary of the method: as §3

[22] = tested on: large crabgrass; assay: as above; settings: dose 3.2 g/a
Summary of the method: as §3

[23] = tested on: velvetleaf; assay: as above; settings: dose 3.2 g/a
Summary of the method: as §3

[24] = tested on: beadstraw; assay: as above; settings: dose 3.2 g/a
Summary of the method: as §3

[25] = tested on: giant foxtail; assay: as above; settings: dose 3.2 g/a
Summary of the method: as §3

[26] = tested on: redroot pigweed; assay: as above; settings: dose 3.2 g/a
Summary of the method: as §3

[27] = tested on: posumbu knotweed; assay: as above; settings: dose 3.2 g/a
Summary of the method: as §3

[28] = tested on: wild oat; assay: as above; settings: dose 3.2 g/a
Summary of the method: as §3

[29] = tested on: Italian ryegrass; assay: as above; settings: dose 3.2 g/a
Summary of the method: as §3

[30] = tested on: transplanted rice; assay: Test Example 1: preemergence treatment under submerged conditions, effect on crop; settings: dose 2.52 g/a
Summary of the method: as §2

[31] = tested on: barnyardgrass; assay: Test Example 2: herbicidal effects during the vegetation period under submerged conditions; settings: treatment during the vegetation period under submerged conditions; dose 2.52 g/a
Summary of the method: (§4)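 Barnyardgrass, bulrush and ducksalad were co-sown in alluvial soil flooded to 4 cm and grown in a greenhouse at 25 to 30° C. At the 1- or 2-leaf stage, water-diluted emulsifiable concentrates went onto the water surface at set doses (g/a). Herbicidal effect was scored three weeks later on a graded scale.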

[32] = tested on: bulrush; assay: as above; settings: treatment during the vegetation period under submerged conditions; dose 2.52 g/a
Summary of the method: as §4

[33] = tested on: ducksalad; assay: as above; settings: treatment during the vegetation period under submerged conditions; dose 2.52 g/a
Summary of the method: as §4

Row | SMILES | N: common chickweed, herbicidal effect [1] | L: common lambsquater, herbicidal effect [2] | A: barnyardgrass, herbicidal effect [3] | J: common ragweed, herbicidal effect [4] | G: water foxtail, herbicidal effect [5] | D: large crabgrass, herbicidal effect [6] | I: velvetleaf, herbicidal effect [7] | O: beadstraw, herbicidal effect [8] | E: giant foxtail, herbicidal effect [9] | K: redroot pigweed, herbicidal effect [10] | M: posumbu knotweed, herbicidal effect [11] | F: wild oat, herbicidal effect [12] | H: Italian ryegrass, herbicidal effect [13] | A: barnyardgrass, herbicidal effect (evaluation scale 0-5) [14] | B: bulrush, herbicidal effect (evaluation scale 0-5) [15] | C: ducksalad, herbicidal effect (evaluation scale 0-5) [16] | herbicidal effect, N: common chickweed [17] | herbicidal effect, L: common lambsquater [18] | herbicidal effect, A: barnyardgrass [19] | herbicidal effect, J: common ragweed [20] | also measured
1 | CCOC(=O)N(c1ccccc1CN1OCCCC1=O)S(=O)(=O)C(F)(F)F [III-13] | 4 (mortality of at least 70% and less than 90%) | 0 (mortality of less than 5% (almost ineffective)) | 5 (mortality of 90% or above (nearly complete death)) | 4 (mortality of at least 70% and less than 90%) | 5 (mortality of 90% or above (nearly complete death)) | 5 (mortality of 90% or above (nearly complete death)) | 5 (mortality of 90% or above (nearly complete death)) | 4 (mortality of at least 70% and less than 90%) | 5 (mortality of 90% or above (nearly complete death)) | 0 (mortality of less than 5% (almost ineffective)) | 0 (mortality of less than 5% (almost ineffective)) | 0 (mortality of less than 5% (almost ineffective)) | 4 (mortality of at least 70% and less than 90%) | 5 (mortality of 90% or above (nearly complete death)) | 5 (mortality of 90% or above (nearly complete death)) | 5 (mortality of 90% or above (nearly complete death)) | 4 (mortality of at least 70% and less than 90%) | 0 (mortality of less than 5% (almost ineffective)) | 5 (mortality of 90% or above (nearly complete death)) | 5 (mortality of 90% or above (nearly complete death)) | herbicidal effect, G: water foxtail [21]: 5 (mortality of 90% or above (nearly complete death)); herbicidal effect, D: large crabgrass [22]: 5 (mortality of 90% or above (nearly complete death)); herbicidal effect, I: velvetleaf [23]: 5 (mortality of 90% or above (nearly complete death)); herbicidal effect, O: beadstraw [24]: 0 (mortality of less than 5% (almost ineffective)); herbicidal effect, E: giant foxtail [25]: 5 (mortality of 90% or above (nearly complete death)); herbicidal effect, K: redroot pigweed [26]: 3 (mortality of at least 40% and less than 70%); herbicidal effect, M: posumbu knotweed [27]: 0 (mortality of less than 5% (almost ineffective)); herbicidal effect, F: wild oat [28]: 3 (mortality of at least 40% and less than 70%); herbicidal effect, H: Italian ryegrass [29]: 5 (mortality of 90% or above (nearly complete death)); a: transplanted rice, effect on crop (evaluation scale 0-5) [30]: 1 (mortality of at least 5% and less than 20%); A: barnyardgrass, herbicidal effect (evaluation scale 0-5) [31]: 5 (mortality of 90% or above (nearly complete death)); B: bulrush, herbicidal effect (evaluation scale 0-5) [32]: 5 (mortality of 90% or above (nearly complete death)); C: ducksalad, herbicidal effect (evaluation scale 0-5) [33]: 5 (mortality of 90% or above (nearly complete death))
2 | CC(C)COC(=O)N(c1ccccc1CN1OCCCC1=O)S(=O)(=O)C(F)(F)F [III-15] | 3 (mortality of at least 40% and less than 70%) | 0 (mortality of less than 5% (almost ineffective)) | 5 (mortality of 90% or above (nearly complete death)) | 4 (mortality of at least 70% and less than 90%) | 5 (mortality of 90% or above (nearly complete death)) | 5 (mortality of 90% or above (nearly complete death)) | 4 (mortality of at least 70% and less than 90%) | 3 (mortality of at least 40% and less than 70%) | 4 (mortality of at least 70% and less than 90%) | 2 (mortality of at least 20% and less than 40%) | 0 (mortality of less than 5% (almost ineffective)) | 0 (mortality of less than 5% (almost ineffective)) | 3 (mortality of at least 40% and less than 70%) | 5 (mortality of 90% or above (nearly complete death)) | 5 (mortality of 90% or above (nearly complete death)) | 5 (mortality of 90% or above (nearly complete death)) | 4 (mortality of at least 70% and less than 90%) | 0 (mortality of less than 5% (almost ineffective)) | 5 (mortality of 90% or above (nearly complete death)) | 3 (mortality of at least 40% and less than 70%) | herbicidal effect, G: water foxtail [21]: 5 (mortality of 90% or above (nearly complete death)); herbicidal effect, D: large crabgrass [22]: 5 (mortality of 90% or above (nearly complete death)); herbicidal effect, I: velvetleaf [23]: 4 (mortality of at least 70% and less than 90%); herbicidal effect, O: beadstraw [24]: 0 (mortality of less than 5% (almost ineffective)); herbicidal effect, E: giant foxtail [25]: 5 (mortality of 90% or above (nearly complete death)); herbicidal effect, K: redroot pigweed [26]: 2 (mortality of at least 20% and less than 40%); herbicidal effect, M: posumbu knotweed [27]: 0 (mortality of less than 5% (almost ineffective)); herbicidal effect, F: wild oat [28]: 0 (mortality of less than 5% (almost ineffective)); herbicidal effect, H: Italian ryegrass [29]: 3 (mortality of at least 40% and less than 70%); a: transplanted rice, effect on crop (evaluation scale 0-5) [30]: 2 (mortality of at least 20% and less than 40%); A: barnyardgrass, herbicidal effect (evaluation scale 0-5) [31]: 5 (mortality of 90% or above (nearly complete death)); B: bulrush, herbicidal effect (evaluation scale 0-5) [32]: 5 (mortality of 90% or above (nearly complete death)); C: ducksalad, herbicidal effect (evaluation scale 0-5) [33]: 5 (mortality of 90% or above (nearly complete death))

From patent publication US20120029187A1, “HALOALKYLSULFONANILIDE DERIVATIVE” (Nissan Chemical Industries, Ltd., priority 2009, published 2012)
